Data: patent US7220773B2, “Pyrrole derivative” (Dainippon Sumitomo Pharma Co., Ltd., priority 2001, dated 2007)

System: male db/db mice
Experiment: Hypoglycemic activity in db/db mice, oral administration once a day for 2 weeks
Format: in vivo
Settings: male db/db mice (7 to 8 weeks old), versus vehicle on last day; for inhibition in vivo at 100 mg/kg / inhibition in vivo at 30 mg/kg: Mus musculus, po, 336 h; for inhibition in vivo at 100 mg/kg: dosage 100 mg/kg orally once a day for 2 weeks in 0.5% carboxymethyl cellulose
Method: The test compounds described in Examples (these compound were made into a free form from a salt form, a sodium salt or calcium salt, if necessary) were dissolved or suspended in 0.5% carboxymethyl cellulose solution. Mice were forced to orally administer the test compound as to administer the total amount of 30 mg/kg or 100 mg/kg to male db/db mice (7 to 8 weeks old) once a day for 2 weeks. On last day, to the blood just taken from tail vein was added perchloric acid to remove proteins and then the blood sugar was measure by glucose CII Test Waco (Wako Pure Chemical Ind.). Hypoglycemic activity was calculated as following formula: [formula] • A: Blood sugar level of Vehicle (on last day) • B: Blood sugar level of test compound-administered group (on last day)

[1] = dosage 30 mg/kg orally once a day for 2 weeks in 0.5% carboxymethyl cellulose

| Structure (SMILES) | inhibition in vivo at 100 mg/kg [%] | inhibition in vivo at 30 mg/kg [1] [%] | other results |
| --- | --- | --- | --- |
| Cc1ccc(C(=O)c2cccn2C/C=C/c2cccc(C(C)(C)C(=O)O)c2)cc1 [Example 39] | 65 | – | – |
| O=C(O)COc1cccc(/C=C/Cn2cccc2C(=O)c2ccc(Cl)cc2)c1 [Example 53] | 23 | – | – |
| COc1cccc(C(=O)c2cccn2C/C=C/c2cccc(OC(C)C(=O)O)c2)c1 (stereo not drawn) [Example 63] | – | 19 | – |
| CCc1ccc(C(=O)c2cccn2C/C=C/c2cccc(O[C@@H](C)C(=O)O)c2)cc1 [Example 91] | – | 55 | – |
| C[C@H](Oc1cccc(/C=C/Cn2cccc2C(=O)c2ccc3c(c2)OCO3)c1)C(=O)O [Example 92] | – | 46 | – |
| Cc1ccc(C(=O)c2cccn2C/C=C/c2cccc([C@@H](C)C(=O)O)c2)cc1 [Example 110] | – | 17 | – |
| Cc1ccc(C(=O)c2cccn2C/C=C/c2cccc([C@H](C)C(=O)O)c2)cc1 [Example 111] | – | 61 | – |
| Cc1ccc(C(=O)c2cccn2C/C=C/c2cccc(SC(C)C(=O)O)c2)cc1 (stereo not drawn) [Example 126] | – | 56 | – |
| Cc1ccc(C(=O)c2ccn(C/C=C/c3cccc(SC(C)C(=O)O)c3)c2)cc1 (stereo not drawn) [Example 128] | 27 | – | – |
| Cc1ccc(NC(=O)c2cccn2C/C=C/c2cccc(SCC(=O)O)c2)cc1 [Example 135] | 16 | – | – |
| Cc1ccc(C(=O)c2cccn2C/C=C/c2cccc(O[C@H](C)C(=O)O)c2)cc1 [Example 139] | 55 | – | – |
| Cc1ccc(C(=O)c2cccn2C/C=C/c2cccc(O[C@@H](C)C(=O)O)c2)cc1 [Example 142] | 55 | – | – |
| CC(Oc1cccc(/C=C/Cn2cccc2C(=O)c2ccc(C(F)(F)F)cc2)c1)C(=O)O (stereo not drawn) [Example 143] | – | 21 | – |
| CC(Oc1cccc(/C=C/Cn2cccc2C(=O)c2cccc(Oc3ccc(C(F)(F)F)cc3)c2)c1)C(=O)O (stereo not drawn) [Example 155] | – | 57 | – |
| COc1ccc(C(=O)c2cc(C)cn2C/C=C/c2cccc(O[C@@H](C)C(=O)O)c2)cc1 [Example 158] | – | 24 | – |
| CCC(Cc1cccc(/C=C/Cn2cccc2C(=O)c2ccc(C)cc2)c1)C(=O)O (stereo not drawn) [Example 165] | 68 | – | – |
| COc1ccccc1NC(=O)c1cccn1C/C=C/c1cccc(SCC(=O)O)c1 [Example 171] | 20 | – | – |
| CC(Oc1cccc(/C=C/Cn2cccc2C(=O)Nc2ccc(OC(F)(F)F)cc2)c1)C(=O)O (stereo not drawn) [Example 179] | – | 22 | – |
| C[C@H](Oc1cccc(/C=C/Cn2cccc2C(=O)c2ccc3c(c2)CCO3)c1)C(=O)O [Example 186] | – | 44 | – |
| Cc1ccc(CC(=O)c2cccn2C/C=C/c2cccc(O[C@@H](C)C(=O)O)c2)cc1 [Example 191] | – | 15 | – |
| Cc1ccc(CC(=O)c2cccn2C/C=C/c2cccc(O[C@@H](C)C(=O)O)c2)cc1 [Example 201] | – | – | Hypoglycemic activity(%) [1]: 18% |
